Literature values, collected in patent US20080286377A1 (priority 2001, published 2008).

Columns and labels:
[1] = tested on: osteolysis associated with wear debris; settings: systemic administration
[2] = activity assays
bone resorption = settings: mild to moderate Paget's disease; administration for 10 days (intravenous) to 6 months (oral); SAP activity and UHP excretion as indicators

For `NCCCC(O)(P(=O)(O)O)P(=O)(O)O` [alendronate], the “osteolysis associated with wear debris” value [1] is listed as “inhibited osteolysis”, the “prevention of resorption, 10-second contact” value (alveolar bone resorption; 10-second contact of soaked pellet to alveolar bone) is listed as “ineffective in preventing resorption” and the “bone resorption after local administration” value (alveolar bone resorption; drug-soaked pellet against alveolar bone for 2 hours, monitored 21 days later) is listed as “significantly reduced bone resorption”. The “prevention of resorption, systemic administration” value (alveolar bone resorption; systemic administration) was “effective”.

For `N.N.[Cl][Pt][Cl]` [cisplatin], the “effect of PMMA polymerization process on drug potency” value (“effect of PMMA polymerization process” below) [2] is listed as “did not adversely impact or alter the therapeutic potential”.

For `CN(Cc1cnc2nc(N)nc(N)c2n1)c1ccc(C(=O)N[C@@H](CCC(=O)O)C(=O)O)cc1` [methotrexate], the “effect of PMMA polymerization process” value [2] is given as “did not adversely impact or alter the therapeutic potential”.

In the case of `NCCC(O)(P(=O)(O)O)P(=O)(O)O` [pamidronate disodium], the “biochemical remission of bone resorption, mean duration” value (bone resorption) is listed as 2.7 years.

For Gentamicin, the “effect of PMMA polymerization process” value [2] is listed as “did not adversely impact or alter the therapeutic potential”.
